# According to article PMC6376154 (International Journal for Parasitology: Drugs and Drug …, 2019):
# Read-outs that look alike come from different tables or passages of the source.
# What was measured:
# [1] = 3H-thymidine incorporation toxicity assay on ConA-stimulated uninfected bovine PBMC (CC50); settings: bovine
# Method: (§1) All the MMV compounds were initially tested for inhibitory activity on the growth of F100TpM, a bovine lymphocyte cell line infected by T. parva. […] All compounds were tested in triplicate.
# (§2) The radiolabeled precursor ^3H-thymidine is incorporated into DNA strands during cell replication and radioisotope incorporation is often used as a measure of cell proliferation.
# (§3) IC50 values were calculated using the Graph Pad Prism 7 software (GraphPad Software, Inc., La Jolla, CA), and average values of radio-isotope incorporation in wells with and without compound on the growth of F100TpM cells. The CC50 values were calculated using ^3H-thymidine incorporation values determined on the growth of PBMC stimulated with ConA. The therapeutic index of a compound was calculated by dividing the CC50 value with the IC50 value.
# [2] = system: F100TpM, a bovine lymphocyte cell line infected by T. parva; experiment: 3H-thymidine incorporation growth assay on F100TpM cells (screen at 1 μM and IC50 titration); settings: for TI (CC50/IC50), therapeutic index: CC50 on Con A blasts divided by IC50 on F100TpM;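 on all read-outs here: growth inhibition compared against wells lacking compound, run in triplicate, and CC50 derived from 3H-thymidine uptake by PBMC stimulated with ConA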
# Method: as §1, §2, §3
# in vitro = settings: bovine, CC50 (μM) Con A blasts
# Method: as §1, §2, §3
# [3] = system: P. falciparum 3D7 asexual blood stage; settings: cited from earlier work; for % inh. At 2.5 uM: given in Comment because of solubility issue at 5 uM
# Trypanosoma cruzi = system: Trypanosoma cruzi; parameters: method as in Van Voorhis et al., 2016; settings: at 5 μM; ref Van Voorhis et al., 2016; cited from earlier work
# [4] = system: Plasmodium berghei ookinete; parameters: method as in Van Voorhis et al., 2016; settings: at 10 μM; ref Van Voorhis et al., 2016; cited from earlier work
# [5] = system: P. falciparum gametocyte NF54-late stage; parameters: method as in Van Voorhis et al., 2016; settings: at 5 μM; ref Van Voorhis et al., 2016; cited from earlier work
# U87 = system: U87; parameters: method as in Van Voorhis et al., 2016; settings: at 5 μM; only one of nine cell lines tested; ref Van Voorhis et al., 2016; cited from earlier work
# [6] = system: bovine PBMC stimulated with ConA (Con A blasts); experiment: 3H-thymidine incorporation toxicity assay on ConA-stimulated uninfected bovine PBMC (CC50); settings: read-out: CC50 (μM) Con A blasts; uninfected bovine PBMC stimulated with ConA, 48 h compound, 3H-thymidine incorporation
# Method: as §1, §2, §3
# [7] = parameters: method as in MMV data sheets; settings: at 5 uM; ref MMV data sheets; cited from earlier work
# [8] = system: bovine PBMC stimulated with ConA (Con A blasts)
# Method: as §1, §2, §3
# [9] = uninfected bovine PBMC stimulated with ConA (Con A blasts), CC50 (μM) Con A blasts, uninfected bovine PBMC stimulated with ConA, 48 h compound, 3H-thymidine incorporation
# [10] = Bos taurus, Lymphocyte, read-out: IC50 (μM) F100TpM, T. parva infected lymphocyte cell line, 48 h compound, 3H-thymidine incorporation
# [11] = MMV Malaria Box sheet, ref MMV data sheets, read-out: EC50_nM
# [12] = source StJude, ref ChEMBL_NTD, read-out: CHEMBL EC50
# [13] = read-out: IC50 (μM) F100TpM, T. parva infected lymphocyte cell line, 48 h compound, 3H-thymidine incorporation
# [14] = MMV Malaria Box data sheet, ref MMV data sheets
# [15] = MMV Malaria Box data sheet, ref MMV data sheets, read-out: EC50_nM
# [16] = source GNF, ref ChEMBL_NTD, read-out: CHEMBL EC50
# [17] = source GSK, ref ChEMBL_NTD, read-out: CHEMBL EC50
# [18] = ChEMBL-NTD value per source (GNF, GSK, StJude), several values in a cell follow the order of the sources, read-out: CHEMBL EC50
# [19] = MMV Malaria Box sheet, ref MMV data sheets
compound,measurement,setting,value
"CC(C)(C)[C@H]1CC[C@H](CC2=C(O)C(=O)c3ccccc3C2=O)CC1 [Buparvaquone, reference compound]",CC50 at 48 h,[1]; [9],> 10 µM
same,IC50,[2]; [10],0.0042 µM
same,"TI (CC50/IC50), therapeutic index",[2],>2380
same,"TI (CC50/IC50), therapeutic index",[2]; listed as buparvaquone,more than 2000
"Cc1nc(Nc2ncc(C(=O)Nc3c(C)cccc3Cl)s2)cc(N2CCN(CCO)CC2)n1 [Dasatinib, dasatinib, reference compound]",CC50 at 48 h,in vitro,> 10 µM
same,"TI (CC50/IC50), therapeutic index",[2],> 2000
Oc1ccc(Br)cc1CN1CCN(Cc2cccc(F)c2)CC1 [MMV000356],EC50,[3]; [11],1030 nM
same,EC50,[3]; [12],1400 nM
same,CC50 at 48 h,[1],0.86 µM
same,IC50,"[2]; Bos taurus, Lymphocyte, read-out: IC50 (μM) F100TpM",0.87 µM
same,"TI (CC50/IC50), therapeutic index",[2],0.99
"COC(=O)Nc1nc2ccc(C(=O)c3ccccc3)cc2[nH]1 [MMV003152, Mebendazole, reference compound]",CC50 at 48 h,in vitro,< 0.001 µM
same,"TI (CC50/IC50), therapeutic index",[2],<0.001
same,IC50,[2]; [13],0.36 µM
same,IC50,"[2]; read-out: IC50 (μM) F100TpM, T. parva infected lymphocyte cell line, 48 h compound, 3H-thymidine incorporation, listed as mebendazole",< 1 µM
CCCN(CCC)CC(O)COc1ccccc1C(=O)Nc1ccccc1 (stereo not drawn) [MMV006455],percent_inh @ 5 uM,[3]; [14],98%
same,EC50,[3]; [15],196 nM
same,EC50,[3]; [16],365 nM
same,EC50,[3]; [17],799 nM
same,CC50 at 48 h,[1]; [9],0.9 µM
same,IC50,[2]; [10],0.84 µM
same,"TI (CC50/IC50), therapeutic index",[2],1.07
COc1cc(-c2nc(-c3ccc(Sc4ccccc4)cc3)c(-c3ccccc3)[nH]2)cc(OC)c1O [MMV007273],EC50,[3]; [18],1280 nM
same,CC50 at 48 h,[1]; [9],0.06 µM
same,IC50,[2]; [10],0.04 µM
same,"TI (CC50/IC50), therapeutic index",[2],1.5
Clc1ccc2c(N3CCCC3)ccnc2c1 [MMV007363],percent_inh @ 5 uM,[3]; [19],97%
same,EC50,[3]; [11],944 nM
same,EC50,[3]; [16],283 nM
same,CC50 at 48 h,[1]; [9],1.09 µM
same,IC50,[2]; [10],1.93 µM
same,"TI (CC50/IC50), therapeutic index",[2],0.56
COc1ccc2nc(C)cc(Nc3cccc(O)c3)c2c1 [MMV008212],growth inhibition of Trypanosoma cruzi,Trypanosoma cruzi,100%
same,growth inhibition of Plasmodium berghei ookinete,[4],76%
same,growth inhibition of P. falciparum gametocyte NF54-late stage,[5],91%
same,percent_inh @ 5 uM,[3]; [19],98%
same,EC50,[3]; [11],969 nM
same,growth inhibition of P. falciparum 3D7 asexual blood stage,"[3]; at 5 μM, ref Van Voorhis et al., 2016",98%
same,EC50,[3]; [16],228 nM
same,"cell death, U87 cell line",U87,76%
same,CC50 at 48 h,[1]; [9],> 5 µM
same,CC50,[6],> 10 µM
same,IC50,[2]; [10],0.78 µM
same,"TI (CC50/IC50), therapeutic index",[2],>12
COc1ccc(-c2nonc2NC(=O)c2cccc(Cl)c2)cc1OC [MMV020660],% inh. At 2.5 uM,[3]; ref MMV data sheets,97%
same,EC50,[3]; [17],876 nM
same,Comment: solubility,[7],Solubility issue at 5 uM
COc1ccc(-c2cnc3ccc(N4CCCC4)nn23)cc1OC [MMV023985],CC50,[8],< 1 nM
same,"TI (CC50/IC50), therapeutic index",[2],<0.001
same,IC50,[2]; [13],0.52 µM
CCOC(=O)c1cnc2c(CC)cccc2c1O [MMV498479],EC50,[3]; [18],1660 nM
same,CC50 at 48 h,[1]; [9],0.13 µM
same,IC50,[2]; [10],0.05 µM
same,"TI (CC50/IC50), therapeutic index",[2],2.6
CCOc1cc(Cl)c(C(C)NC(=O)c2ccccc2)cc1OCC (stereo not drawn) [MMV665800],percent_inh @ 5 uM,[3]; [14],96%
same,EC50,[3]; [15],1370 nM
same,EC50,[3]; [17],875 nM
same,CC50 at 48 h,[1]; [9],0.53 µM
same,IC50,[2]; [10],0.49 µM
same,"TI (CC50/IC50), therapeutic index",[2],1.08
CCCc1cc(O)c2c3c(c(=O)oc2c1)CN(C)CC3 [MMV665841],percent_inh @ 5 uM,[3]; [14],97%
same,EC50,[3]; [15],146 nM
same,EC50,[3]; [16],554 nM
same,EC50,[3]; [17],873 nM
same,CC50 at 48 h,[1]; [9],0.66 µM
same,IC50,[2]; [10],0.36 µM
same,"TI (CC50/IC50), therapeutic index",[2],1.83
CC(=O)c1ccc(NC(=O)CSc2nc(-c3ccccc3Cl)ns2)cc1 [MMV666124],% inh. At 2.5 uM,[3]; ref MMV data sheets,88%
same,EC50,[3]; [17],1130 nM
same,Comment: solubility,[7],Solubility issue at 5 uM
Cc1cc(C=C2SC(=Nc3ccccc3)N(C3CCCC3)C2=O)c(C)n1-c1ccc(Cl)cc1 [MMV666688],percent_inh @ 5 uM,[3]; [14],97%
same,EC50,[3]; [15],263 nM
same,EC50,[3]; [17],876 nM
COc1ccc(Nc2nc(NN=Cc3ccc(O)cc3)nc(Nc3ccc([N+](=O)[O-])cc3)n2)cc1 [MMV666689],EC50,[3]; [18],1120 nM
COc1ccc(C=C2SC(=N)N(c3ccccc3OC)C2=O)cc1 [MMV666691],percent_inh @ 5 uM,[3]; [14],97%
same,EC50,[3]; [15],168 nM
same,EC50,[3]; [17],300 nM
CCCCCCc1cc2cc(-c3csc(C=Cc4ccccc4)n3)c(=O)oc2cc1O [MMV666692],EC50,[3]; [18],970 nM
COc1cccc(C=Cc2nc(=O)c3ccccc3o2)c1OC [MMV666693],percent_inh @ 5 uM,[3]; [14],96%
same,EC50,[3]; [15],23.8 nM
same,EC50,[3]; [17],64.4 nM
CN(C)c1ccc(N2C(N)=NC(N)=NC2(C)C)cc1 [MMV667487],percent_inh @ 2 uM,"[3]; 2 uM, MMV Malaria Box sheet, ref MMV data sheets",95%
same,EC50,[3]; [16],18.8 nM
same,EC50,[3]; [12],72.8 nM
COc1ccc(CCn2c(=N)c(C(=O)NCc3cccnc3)cc3c(=O)n4cccc(C)c4nc32)cc1 [MMV667488],EC50,[3]; [18],1400 nM
CO[C@@H](C(=O)N1Cc2[nH]nc(NC(=O)c3ccc(N4CCN(C)CC4)cc3)c2C1)c1ccccc1 [MMV676600],CC50,[8],< 1 nM
same,"TI (CC50/IC50), therapeutic index",[2],<0.001
same,IC50,[2]; [13],0.55 µM
CNC(=O)c1nn(C)c2c1C(C)(C)Cc1cnc(Nc3ccc(N4CCN(C)CC4)cc3)nc1-2 [MMV676602],CC50,[6],0.3 µM
same,"TI (CC50/IC50), therapeutic index",[2],0.86
same,IC50,[2]; [13],0.35 µM
Cc1nn(C)c(C)c1NS(=O)(=O)c1c(Cl)cc(-c2ccnc(N3CCNCC3)c2)cc1Cl [MMV688180],CC50,[6],< 0.001 µM
same,"TI (CC50/IC50), therapeutic index",[2],<0.001
same,IC50,[2]; [13],0.97 µM
N=C(N)Nc1ccc(-c2ccc(-c3ccc(N=C(N)N)c(Cl)c3)o2)cc1Cl [MMV688271],CC50,[8],560 nM
same,"TI (CC50/IC50), therapeutic index",[2],0.95
same,IC50,[2]; [13],0.59 µM
O=C(Nc1ccc(F)c(-c2nc3ncc(-c4ccccc4)cc3[nH]2)c1)N1CCCC1 [MMV688372],IC50,[2]; [13],0.61 µM
"CC(=O)OCC1OC([S-])C(OC(C)=O)C(OC(C)=O)C1OC(C)=O.CCP(CC)CC.[Au+] (stereo not drawn) [MMV688978, Auranofin, reference compound]",CC50,[6],0.4 µM
same,"TI (CC50/IC50), therapeutic index",[2],0.74
same,IC50,[2]; [13],0.54 µM
same,IC50,"[2]; read-out: IC50 (μM) F100TpM, T. parva infected lymphocyte cell line, 48 h compound, 3H-thymidine incorporation, listed as auranofin",< 1 µM
